One molecule from PMC9011347, “Small-Molecule Inhibitors Targeting Lipolysis in Human Adipocytes” (Journal of the American Chemical Society, 2022) can be followed below.

The subject of the experiment is HepG2^AKO cells. Nature of the experiment: Seahorse cellular respiration (OCR) in ATGL knockout cells. It counts as cell-based, human. Particulars: NG-497 40 μM, galactose medium. How it is done: (a) HepG2 cells were treated with NG-497 (40 μM) or DMSO as control and oxygen consumption rate (OCR) was determined in Seahorse growth medium supplemented with glucose (25 mM) using the SeaHorse XF96 extracellular flux analyzer. OCR was determined after subsequent addition of 1 μM Oligomycin (ATP-synthase inhibitor), 1 μM FCCP (uncoupler), and 1 μM antimycin/rotenone (electron transport chain inhibitors). (b) Statistical analysis of basal respiration (BR), maximal respiration (MR), proton leak (PL), ATP production (ATPP), spare respiratory capacity (SRC), and nonmitochondrial oxygen consumption (NMOC) of control and NG-497-treated cells. (c) Extracellular acidification rate (ECAR) and (d) OCR of HepG2 cells were determined in Seahorse growth medium supplemented with glucose (25 mM) or galactose (10 mM). […] Growth of cells expressing (HepG2^control) or lacking functional ATGL (HepG2^AKO) was determined using a BioRad cell analyzer. ATGL expression was analyzed by Western blotting analysis using an anti-ATGL antibody and GAPDH as a loading control (inset). (h) Acylglycerol content of HepG2^control and HepG2^AKO cells was determined by a commercial kit (TG Infinity reagent, Thermo Fisher Scientific). […] Statistical significance was determined via Student’s t test (*p < 0.05; **p < 0.01; ***p < 0.001) or ANOVA followed by Bonferroni post hoc test (^#p < 0.05; ^##p < 0.01; ^###p < 0.001). […]

Turning to `CCOc1ccc(-c2cc(OC)cc(C(=O)OC(C)C)n2)cc1` [NG-497], the effect on respiration entry is reported as “no effect on respiration”.
